According to patent US11649218B2, “C-Abl tyrosine kinase inhibitory compound embodiments and methods of making and using the same” (The USA, as represented by the Secretary, Dept. of Health …, priority 2018, dated 2023):

Test system: Leukemia K562 cell
Experiment: Leukemia K562 cell proliferation/viability assay (CellTiterGlo, 48 hours)
Assay type: cell-based
Design: unit not given here
Conditions: K562 cells
Experimental: C-Abl is encoded by the ABL1 gene (NCBI Gene ID NO. 25). […] Assays for determining if a small molecule inhibits c-Abl activity are known. Non-limiting examples include cell proliferation assays using cancer cells that are BCR-Abl positive and depend on BCR-Abl for growth, such as the leukemia cell line K562. […] In some embodiments described herein, compounds are tested for ability to reduce K562 cell proliferation in an HTS adapted assay which measures cell viability using the reagent CellTiterGlo after 48 hours treatment.

| Structure (SMILES) | Efficacy |
| --- | --- |
| COC(=O)c1ccc2c(c1)C(=O)Nc1cc(OC(F)(F)F)ccc1O2 [NCGC00387394] | 0.0 |
| NC(=O)c1cccc(-c2ccc3c(c2)C(=O)Nc2cc(OC(F)(F)F)ccc2O3)c1 [NCGC00356842, 3-(11-Oxo-8-(trifluoromethoxy)-10,11-dihydrodibenzo[b,f][1,4]oxazepin-2-yl)benzamide] | −67.0 |
| CS(=O)(=O)Nc1cccc(-c2ccc3c(c2)Oc2ccc(OC(F)(F)F)cc2NC3=O)c1 [NCGC00384235, N-(3-(11-Oxo-8-(trifluoromethoxy)-10,11-dihydrodibenzo[b,f][1,4]oxazepin-3-yl)phenyl)methanesulfonamide] | −99.8 |
| O=C1Nc2cc(OC(F)(F)F)ccc2Oc2ccc(-c3cnn(CCN4CCOCC4)c3)cc21 [NCGC00387296, 2-(1-(2-Morpholinoethyl)-1H-pyrazol-4-yl)-8-(trifluoromethoxy)dibenzo[b,f][1,4]oxazepin-11(10H)-one] | −81.7 |
| O=C1Nc2cc(OC(F)(F)F)ccc2Oc2ccc(-c3ccnc4[nH]ccc34)cc21 [NCGC00373059, 2-(1H-Pyrrolo[2,3-b]pyridin-4-yl)-8-(trifluoromethoxy)dibenzo[b,f][1.4]oxazepin-11(10H)-one] | −52.9 |
| CS(=O)(=O)Nc1ccc(-c2ccc3c(c2)C(=O)Nc2cc(OC(F)(F)F)ccc2O3)cc1 [NCGC00356666, N-(4-(11-Oxo-8-(trifluoromethoxy)-10,11-dihydrodibenzo[b,f][1,4]oxazepin-2-yl)phenyl)methanesulfonamide] | −79.9 |
| O=C(NCCO)c1cccc(-c2ccc3c(c2)C(=O)Nc2cc(OC(F)(F)F)ccc2N3)c1 [NCGC00355556, N-(2-hydroxyethyl)-3-(11-oxo-8-(trifluoromethoxy)-10,11-dihydro-5H-dibenzo[b,e][1,4]diazepin-2-yl)benzamide] | −90.9 |
| CC(=O)c1csc(-c2ccc3c(c2)C(=O)Nc2cc(OC(F)(F)F)ccc2O3)c1 [NCGC00388580, 2-(4-Acetylthiophen-2-yl)-8-(trifluoromethoxy)dibenzo[b,f][1,4]oxazepin-11(10H)-one] | −92.6 |
| CS(=O)(=O)Nc1cccc(-c2ccc3c(c2)CNc2cc(OC(F)(F)F)ccc2O3)c1 [NCGC00371644, N-(3-(8-(Trifluoromethoxy)-10,11-dihydrodibenzo[b,f][1,4]oxazepin-2-yl)phenyl)methanesulfonamide] | −90.7 |
| O=C1Nc2cc(OC(F)(F)F)ccc2Nc2ccc(-c3cccc(C(=O)N4CCNCC4)c3)cc21 [NCGC00355569, 2-(3-(Piperazine-1-carbonyl)phenyl)-8-(trifluoromethoxy)-5,10-dihydro-11H-dibenzo[b,e][1,4]diazepin-11-one] | −97.3 |
| N#CCn1cc(-c2ccc3c(c2)C(=O)Nc2cc(OC(F)(F)F)ccc2O3)cn1 [NCGC00388626, 2-(4-(11-Oxo-8-(trifluoromethoxy)-10,11-dihydrodibenzo[b,f][1,4]oxazepin-2-yl)-1H-pyrazol-1-yl)acetonitrile] | −34.8 |
| CN1C(=O)c2cc(-c3cccc(NS(C)(=O)=O)c3)ccc2Oc2ccc(OC(F)(F)F)cc21 [NCGC00384233] | −75.1 |
| CN(C)S(=O)(=O)c1cccc(-c2ccc3c(c2)C(=O)Nc2cc(OC(F)(F)F)ccc2O3)c1 [NCGC00373057, N,N-Dimethyl-3-(11-oxo-8-(trifluoromethoxy)-10. I1-dihydrodibenzo[b,f][1,4]oxazepin-2-yl)benzenesulfonamide] | −85.1 |
| CN1C(=O)c2ccc(-c3cccc(NS(C)(=O)=O)c3)cc2Oc2ccc(OC(F)(F)F)cc21 [NCGC00384234] | −54.1 |
| CN1CCN(c2cc(-c3ccc4c(c3)C(=O)Nc3cc(OC(F)(F)F)ccc3O4)ccn2)CC1 [NCGC00373063, 2-(2-(4-Methylpiperazin-1-yl)pyridin-4-yl)-8-(trifluoromethoxy)dibenzo[b,f][1,4]oxazepin-11(10H)-one] | −107.9 |
| CC(C)(O)Cn1cc(-c2ccc3c(c2)C(=O)Nc2cc(OC(F)(F)F)ccc2O3)cn1 [NCGC00387294, 2-(1-(2-Hydroxy-2-methylpropyl)-1H-pyrazol-4-yl)-8-(trifluoromethoxy)dibenzo[b,f][1,4]oxazepin-11(10H)-one] | −82.3 |
| COc1ccc(-c2ccc3c(c2)C(=O)Nc2cc(OC(F)(F)F)ccc2O3)cc1O [NCGC00373062, 2-(3-Hydroxy-4-methoxyphenyl)-8-(trifluoromethoxy)dibenzo[b,f][1,4]oxazepin-11(10H)-one] | −93.7 |
| O=C1Nc2cc(OC(F)(F)F)ccc2Oc2ccc(CCCB(O)O)cc21 [NCGC00390142, (3-(11-Oxo-8-(trifluoromethoxy)-10,11-dihydrodibenzo[b,f][1,4]oxazepin-2-yl)propyl)boronic acid] | −103.4 |
| O=C(NCCO)c1cccc(-c2ccc3c(c2)C(=O)Nc2cc(OC(F)(F)F)ccc2O3)c1 [NCGC00356688, N-(2-Hydroxyethyl)-3-(11-oxo-8-(trifluoromethoxy)-10H-dihydrodibenzo[b,f][1,4]oxazepin-2-yl)benzamide] | −89.8 |

| Structure (SMILES) | Efficacy |
| --- | --- |
| NS(=O)(=O)c1cccc(-c2ccc3c(c2)C(=O)Nc2cc(OC(F)(F)F)ccc2O3)c1 [NCGC00371364, 3-(11-Oxo-8-(trifluoromethoxy)-10,11-dihydrodibenzo[b,f][1,4]oxazepin-2-yl)benzenesulfonamide] | −94.9 |
| O=C(O)c1ccc2c(c1)C(=O)Nc1cc(OC(F)(F)F)ccc1O2 [NCGC00387752] | 0.0 |
| CS(=O)(=O)Nc1cccc(-c2ccc3c(c2)Oc2cc(OC(F)(F)F)ccc2NC3=O)c1 [NCGC00384296, N-(3-(11-oxo-7-(trifluoromethoxy)-10,11-dihydrodibenzo[b,f][1,4]oxazepin-3-yl)phenyl)methanesulfonamide] | −73.3 |
| O=C1Nc2cc(OC(F)(F)F)ccc2Oc2ccc(-c3ccc4[nH]ncc4c3)cc21 [NCGC00373058, 2-(1H-Indazol-5-yl)-8-(trifluoromethoxy)dibenzo[b,f][1,4]oxazepin-11(10H)-one] | −74.3 |
| CC(C)(O)c1cccc(-c2ccc3c(c2)C(=O)Nc2cc(OC(F)(F)F)ccc2O3)c1 [NCGC00411876, 2-(3-(2-Hydroxypropan-2-yl)phenyl)-8-(trifluoromethoxy)dibenzo[b,f][1,4]oxazepin-11(10H)-one] | −86.3 |
| O=C1Nc2cc(OC(F)(F)F)ccc2Oc2ccc(-c3ccncc3)cc21 [NCGC00371309, 2-(Pyridin-4-yl)-8-(trifluoromethoxyl)dibenzo[b,f][1,4]oxazepin-11(10H)-one] | −77.6 |
| O=C1Nc2cc(OC(F)(F)F)ccc2Oc2ccc(-c3ccc(CN4CCNCC4)s3)cc21 [NCGC00388560, 2-(5-(Piperazin-1-ylmethyl)thiophen-2-yl)-8-(trifluoromethoxy)dibenzo[b,f][1,4]oxazepin-11(10H)-one] | −95.0 |
| CN(C)CCn1cc(-c2ccc3c(c2)C(=O)Nc2cc(OC(F)(F)F)ccc2O3)cn1 [NCGC00387297, 2-(1-(2-(Dimethylamino)ethyl)-1H-pyrazol-4-yl)-8-(trifluoromethoxy)dibenzo[b,f][1,4]oxazepin-11(10H)-one] | −115.7 |
| O=C1Nc2cc(OC(F)(F)F)ccc2Oc2ccc(-c3cccc(-c4nn[nH]n4)c3)cc21 [NCGC00420743, 2-(3-(2H-Tetrazol-5-yl)phenyl)-8-(trifluoromethoxy)dibenzo[b,f][1,4]oxazepin-11(10H)-one] | 0.0 |
| O=C1Nc2cc(C(F)(F)F)ccc2Oc2ccc(-c3ccnc(N4CCOCC4)c3)cc21 [NCGC00481506, 2-(2-Morpholinopyridin-4-yl)-8-(trifluoromethyl)dibenzo[b,f][1,4]oxazepin-11(10H)-one] | −87.5 |
| O=C(NCCO)c1cccc(-c2cc(Nc3ccc(OC(F)(F)F)cc3)ncn2)c1 [GNF-5] | −85.8 |
| O=C1Nc2cc(OC(F)(F)F)ccc2Oc2ccc(CCB(O)O)cc21 [NCGC00390141, (2-(11-Oxo-8-(trifluoromethoxy)-10,11-dihydrodibenzo[b,f][1,4]oxazepin-2-yl)ethyl)boronic acid] | −45.8 |
| O=C1Nc2cc(OC(F)(F)F)ccc2Nc2ccc(-c3cccc(C(=O)N4CCOCC4)c3)cc21 [NCGC00355558, 2-(3-(Morpholine-4-carbonyl)phenyl)-8-(trifluoromethoxy)-5,10-dihydro-11H-dibenzo[b,e][1,4]diazepin-11-one] | −89.5 |
| O=C1Nc2cc(OC(F)(F)F)ccc2Oc2ccc(-c3cnc4ccnn4c3)cc21 [NCGC00409812, 2-(pyrazolo[1,5-a]pyrimidin-6-yl)-8-(trifluoromethoxy)dibenzo[b,f][1,4]oxazepin-11(10H)-one] | −69.0 |
| O=C1Nc2cc(OC(F)(F)F)ccc2Sc2ccc(-c3ccnc(N4CCOCC4)c3)cc21 [NCGC00482456, 2-(2-Morpholinopyridin-4-yl)-8-(trifluoromethoxy)dibenzo[b,f][1,4]thiazepin-11(10H)-one] | −85.7 |
| CS(=O)(=O)Nc1cccc(-c2ccc3c(c2)Oc2ccc(OC(F)(F)F)cc2C(=O)N3)c1 [NCGC00384295, N-(3-(11-Oxo-2-(trifluoromethoxy)-10,11-dihydrodibenzo[b,f][1,4]oxazepin-7-yl)phenyl)methanesulfonamide] | −80.6 |
| CC(C)(CO)n1cc(-c2ccc3c(c2)C(=O)Nc2cc(OC(F)(F)F)ccc2O3)cn1 [NCGC00387295, 2-(1-(Hydroxy-2-methylpropan-2-yl)-1H-pyrazol-4-yl)-8-(trifluoromethoxy)dibenzo[b,f][1,4]oxazepin-11(10H)-one] | −87.7 |
| O=C1Nc2cc(OC(F)(F)F)ccc2Oc2ccc(B(O)O)cc21 [NCGC00387437, (11-Oxo-8-(trifluoromethoxy)-10,11-dihydrodibenzo[b,f][1,4]oxazepin-2-yl)boronic acid] | −82.6 |
| O=C1Nc2cc(OC(F)(F)F)ccc2Oc2ccc(-c3cccc(B(O)O)c3)cc21 [NCGC00415019, (3-(11-Oxo-8-(trifluoromethoxy)-10,11-dihydrodibenzo[b,j][1,4]oxazepin-2-v)phenyl)boronic acid] | −79.0 |
